{"source": "patent US20220257684A1", "about": "“ANTI-COCCIDIAL PHYTOGENIC FORMULATIONS” (priority 2019, published 2022)", "key": {"[1]": {"tested_on": "E. tenella oocysts", "assay": "Sporulation assay", "format": "cell-based, Eimeria tenella", "conditions": "positive control, FIG. 2A", "experimental": "FIGS. 2A-C are photomicrographs (upper panels) and bar graphs (lower panels) illustrating the in vitro effects of formulations comprising A. indica (AI), B. pilosa (BP), or a mixture of A. indica (AI) and B. pilosa (BP) on viability of E. tenella (ET) oocysts and its sporulation. The oocysts were pre-treated with PBS, sodium dithionite (SD), an inhibitor of oocyst sporulation or plant extracts containing AI (2A), BP (2B), or both AI and BP (2C) at the indicated dosages for 48 h. The oocysts were induced to sporulate by potassium dichromate for 2 days. The percentage of sporulating oocysts was counted using a microscope ([…]) and plotted into bar graphs (right panel); scale bar is 200 μm. Arrow indicates sporulating oocysts whilst arrowhead indicates non-sporulating oocysts.\nSporulation assay. The E tenella oocysts were pre-treated with PBS, boiling (100° C. for 30 min) or plant extracts at indicated doses for 48 h. The oocysts were incubated with 2% potassium dichromate for 2 days before sporulation. The percentage of sporulating oocysts (%) was counted.\nThe effects of the plant extracts on sporulation of E. ET oocysts were tested. Seventy percent of ET oocysts were able to sporulate in the in vitro culture (PBS, FIG. 2A). […]"}, "[2]": {"tested_on": "E. tenella (ET) sporozoites invading Madin-Darby bovine kidney (MDBK) cells", "assay": "Invasion assay (sporozoite entry into MDBK cells)", "format": "cell-based, Eimeria tenella", "conditions": "at 50 μg/ml; untreated invasion 20% of the cells", "experimental": "FIGS. 3A-C are photomicrographs (left panels) and bar graphs (right panels) illustrating the in vitro effects of formulations composed of A. indica (AI), B. pilosa (BP), or a mixture of A. indica (AI) and B. pilosa (BP) on E. tenella (ET) sporozoite invasion. Madin-Darby bovine kidney (MDBK) cells were incubated with salinomycin (Sal), or plant extracts containing A. indica (AI)(3A), B. pilosa (BP) (3B) or a mixture of AI and BP (3C) at indicated dosages for 0.5 h. The sporozoites were added to the MDBK cells for […]. After washing, the MDBK cells were stained with hematoxylin and eosin (H&E) and counted. The invasion percentage (%) was plotted into bar graphs. The inset represents a magnified area. Scale bars of microscope in 100× and 40× (inset) are 10 μm and 50 μm (inset), respectively. Arrowhead indicates the MDBK cells infected with sporozoites.\nInvasion assay. Madin-Darby bovine kidney (MDBK, ATCC® CCL-22) cells, grown in DMEM containing fetal bovine serum (10%) and supplements, were seeded onto glass cover slips in 24 wells at 2×10^5 cells/well. One day later, the cells were pre-incubated with DMEM medium containing salinomycin, or plant extracts and phytochemicals at doses indicated for 0.5 h. Fresh sporozoites (2×10^5) were added to the cells for additional 4 h. […]"}, "[3]": {"tested_on": "E. tenella challenged chickens", "assay": "Body weight gain in E. tenella challenged chickens", "format": "in vivo, chicken", "conditions": "BP alone 0.01%, AI alone 0.01%", "source_text": "(§1) FIG. 4A is a schematic drawing showing the experimental protocol used in in vivo studies. Birds in untreated groups had daily access to standard diet, and birds in treated groups were fed with diet containing salinomycin, A. indica (AI), B. pilosa (BP), or a mixture of AI plus BP. On day 7, chickens were challenged with PBS or E. tenella (ET) sporulated oocysts (1×10^4) by gavage. The survival rate in each group was monitored from day 1 to 7 post infection.\n(§2) Birds, diets, and experimental design. One-day-old Lohmann broiler chicks hatched at Taichung Hatchery (Taiwan) were wing-banded upon arrival, weighed, and randomly placed in Petersime starter brooder units. At 1 to 2 days post-hatching, the birds were given free access to water and diets. The diets were formulated by mixing a base diet with a carrier alone (control diet) or with an indicated dose of a phytogenic formulation comprising Artemisia indica (AI), B. pilosa (BP), or both AI and BP. After grouping, birds were tube-fed with Eimeria oocysts to get infection. Growth performance (body weight and feed conversion), pathology (bloody droppings and gut morphometry) and survival rate were measured and examined (FIG. 4A). […]\nBody weights (BW) of the chickens from FIG. 4B were monitored on Days 1, 7 and 14, and body-weight (BW) gains were calculated on Days 7 and 14. […]"}, "[4]": {"tested_on": "E. tenella challenged chickens", "assay": "Survival rate in E. tenella challenged chickens", "format": "in vivo, chicken", "conditions": "ET-infected chickens (1×10^4 oocysts), substance in feed; infected standard feed 60%; FIG. 4B", "source_text": "as §1\nFIG. 4B is a graph showing survival rate in each group of FIG. 4A. Chickens were divided into eight groups: Group 1 (G1), uninfected and fed with a standard diet; Group 2 (G2), ET-infected and fed with a standard diet; Group 3 (G3) to Group 8 (G8), ET-infected and fed with diet containing salinomycin, BP alone, a combination of BP and different dosages of AI, or AI alone without BP as indicated. Each group has 15 chicks and P values are indicated.\nBirds, diets, and experimental design. One-day-old Lohmann broiler chicks hatched at Taichung Hatchery (Taiwan) were wing-banded upon arrival, weighed, and randomly placed in Petersime starter brooder units. At 1 to 2 days post-hatching, the birds were given free access to water and diets. […] Growth performance (body weight and feed conversion), pathology (bloody droppings and gut morphometry) and survival rate were measured and examined (FIG. 4A). […]"}, "[5]": {"tested_on": "E. tenella challenged chickens", "assay": "Microscopic cecal lesion scores and histology in E. tenella challenged chickens", "format": "in vivo, chicken", "conditions": "ceca, Day 7 post ET infection", "source_text": "as §1\n(§3) Birds, diets, and experimental design. One-day-old Lohmann broiler chicks hatched at Taichung Hatchery (Taiwan) were wing-banded upon arrival, weighed, and randomly placed in Petersime starter brooder units. At 1 to 2 days post-hatching, the birds were given free access to water and diets. The diets were formulated by mixing a base diet with a carrier alone (control diet) or with an indicated dose of a phytogenic formulation comprising Artemisia indica (AI), B. pilosa (BP), or both AI and BP. After grouping, birds were tube-fed with Eimeria oocysts to get infection. Growth performance (body weight and feed conversion), pathology (bloody droppings and gut morphometry) and survival rate were measured and examined (FIG. 4A). All birds were maintained in the institutional animal facility and handled according to institutional guidelines.\nImmunohistochemical staining. Multiple parallel sections of the ceca from chickens that had access to control diet and the diet containing Artemisia indica (AI), B. pilosa (BP), or both for 14 days were flash-frozen. The sections were stained with H&E or anti-insulin antibody, with development of diaminobenzidine tetrahydrochloride, followed by image analysis (Yang et al. Research in Veterinary Science (2015) 98:74-81).\n(§4) The anti-coccidial effects of the extracts of A. indica (AI), B. pilosa (BP) and a combination of both extracts were examined in vivo. Chickens were randomly divided into 8 groups and given daily (Day 1 to Day 14) access to standard chicken feed (Groups 1 and 2), feed containing salinomycin (Group 3), or feed containing the plant extracts (Groups 4 to 8) at the indicated doses (FIG. 4A).\nMucosal damages caused by coccidia were examined under microscope and scored as microscopic cecal lesions based on the distribution and severity of the mucosal destructions in the chicken cecum."}, "[6]": {"tested_on": "E. tenella challenged chickens", "assay": "Bloody stools in E. tenella challenged chickens", "format": "in vivo, chicken", "conditions": "Day 7 post ET infection, versus infected unmedicated birds (100%), FIG. 5", "source_text": "as §1\nFIG. 5 is a bar graph showing percentage of bloody stools in each chicken group of FIG. 4A-B on Day 7 post E. tenella (ET) infection. Chicken stools were classified on Day 1 to Day 7 post infection.\nas §2"}, "[7]": {"tested_on": "E. tenella challenged chickens", "assay": "Fecal oocyst excretion in E. tenella challenged chickens", "format": "in vivo, chicken", "source_text": "as §1, §3, §4\nExcretion of Eimeria oocysts in the feces of ET-infected chickens is an indicator of Eimeria multiplication. The oocysts per gram feces (OPG) in the chickens from FIG. 4B were counted from Day 3 to Day 7 post ET infection. No oocysts in the feces were detected in the uninfected unmedicated control group (Group 1, Table 3). Fecal oocyst excretion was first detected on Day 4 post infection in all the ET-infected groups and reached its peak on Day 7 post infection (Group 2)."}, "[8]": {"tested_on": "E. tenella challenged chickens", "assay": "Feed conversion rate in E. tenella challenged chickens", "format": "in vivo, chicken", "conditions": "BP alone 0.01%, AI alone 0.01% in feed", "source_text": "as §1\nas §3, with “guidelines. […]” for “guidelines.”"}, "[9]": {"tested_on": "E. tenella challenged chickens", "assay": "Gross cecal lesion scores in E. tenella challenged chickens", "format": "in vivo, chicken", "conditions": "ceca, Day 7 post ET infection", "source_text": "as §1, §3, §4\nGross lesions in the ceca of the chickens from FIG. 4B were examined and scored. The uninfected unmedicated control chickens (Group 1, Table 4) had no lesions in the ceca (score=0). The ET infection caused more gross cecal lesions in the gut of unmedicated chickens, as evidenced by an average lesion score of 4 (Group 2) on Day 7 post infection."}}, "note": "Several values for one entry are separate records, joined by “and”; a condition that tells them apart may be missing. Equal values may be shown once. Marks after values point to notes of the source that are not given here.", "data": [{"smiles": "O=S([O-])S(=O)[O-].[Na+].[Na+]", "note": "[sodium dithionite]", "values": [{"measurement": "reduction of sporulation of ET oocysts as compared to the PBS treatment group", "setting": "[1]", "value": 40, "unit": "%"}]}, {"smiles": "CC[C@@H](C(=O)[C@@H](C)[C@@H](O)[C@H](C)[C@@H]1O[C@@H]([C@@H](CC)C(=O)O)CC[C@@H]1C)[C@H]1O[C@]2(C=C[C@@H](O)[C@]3(CC[C@@](C)([C@H]4CC[C@](O)(CC)[C@H](C)O4)O3)O2)[C@H](C)C[C@@H]1C", "note": "[salinomycin, Salinomycin]", "values": [{"measurement": "ET sporozoite invasion (invasion percentage of MDBK cells)", "setting": "[2]", "value": 10, "unit": "%"}, {"measurement": "BWG (g) Day 7-1", "setting": "[3]; body weight Day 7 minus Day 1, prior to ET infection, substance in feed from Day 1", "value": "27.64 ± 1.16", "unit": "g"}, {"measurement": "BWG (g) Day 14-1", "setting": "[3]; body weight Day 14 minus Day 1, ET oocysts (1×10^4) on Day 7, substance in feed Day 1 to 14", "value": "56.33 g and 56.33 ± 3.15 g"}, {"measurement": "survival rate", "setting": "[4]", "value": 100, "unit": "%"}, {"measurement": "Microscopic lesion score 0 (fraction)", "setting": "[5]", "value": "0/15"}, {"measurement": "Microscopic lesion score 1 (fraction)", "setting": "[5]", "value": "0/15"}, {"measurement": "Microscopic lesion score 3 (fraction)", "setting": "[5]", "value": "0/15"}, {"measurement": "Microscopic lesion score 5 (fraction)", "setting": "[5]", "value": "0/15"}, {"measurement": "Microscopic lesion score 7 (fraction)", "setting": "[5]", "value": "2/15"}, {"measurement": "Microscopic lesion score, Average", "setting": "[5]; infected unmedicated 7.20, BP alone 0.01%, AI alone 0.01% in feed", "value": "6.29 and 6.29 ± 0.13"}, {"measurement": "percentage of bloody stools", "setting": "[6]", "value": "significantly decrease in the percentage of bloody stools"}, {"measurement": "oocysts per gram of feces versus infected unmedicated birds (Group 2), result in words", "setting": "[7]; Day 3 to Day 7 post ET infection", "value": "slightly less oocysts per gram of feces"}, {"measurement": "Ln(OPG ± 1), 3 days post-infection", "setting": "[7]; oocysts per gram feces, Day 3 post ET infection, BP alone 0.01%, AI alone 0.01% in feed", "value": "0 ± 0"}, {"measurement": "Ln(OPG ± 1), 4 days post-infection", "setting": "[7]; oocysts per gram feces, Day 4 post ET infection, BP alone 0.01%, AI alone 0.01% in feed", "value": "3.45 ± 0.16^a,b"}, {"measurement": "Ln(OPG ± 1), 5 days post-infection", "setting": "[7]; oocysts per gram feces, Day 5 post ET infection, BP alone 0.01%, AI alone 0.01% in feed", "value": "4.49 ± 0.02^a,b"}, {"measurement": "Ln(OPG ± 1), 6 days post-infection", "setting": "[7]; oocysts per gram feces, Day 6 post ET infection, BP alone 0.01%, AI alone 0.01% in feed", "value": "4.89 ± 0.01^a,b"}, {"measurement": "Ln(OPG ± 1), 7 days post-infection", "setting": "[7]; oocysts per gram feces, Day 7 post ET infection, BP alone 0.01%, AI alone 0.01% in feed", "value": "5.33 ± 0.01^a,b"}, {"measurement": "FCR Day 7-1", "setting": "[8]; feed intake (Kg) divided by body weight gain on day 7, prior to ET infection", "value": "2.42 ± 0.08"}, {"measurement": "FCR Day 14-1", "setting": "[8]; feed intake (Kg) divided by body weight gain on day 14, ET-infected", "value": "3.05 and 3.05 ± 0.13"}, {"measurement": "Gross lesion score 0: number of chickens", "setting": "[9]; chickens in grade / n", "value": "0/15"}, {"measurement": "Gross lesion score 1: number of chickens", "setting": "[9]; chickens in grade / n", "value": "0/15"}, {"measurement": "Gross lesion score 2: number of chickens", "setting": "[9]; chickens in grade / n", "value": "0/15"}, {"measurement": "Gross lesion score 3: number of chickens", "setting": "[9]; chickens in grade / n", "value": "1/15"}, {"measurement": "Gross lesion score 4: number of chickens", "setting": "[9]; chickens in grade / n", "value": "6/15"}, {"measurement": "Gross lesion score, Average", "setting": "[9]; infected unmedicated 4.00, BP alone 0.01%, AI alone 0.01% in feed", "value": "3.86 and 3.86 ± 0.10"}]}]}
